Data published in US11467161B2, “Biomarkers of therapeutic responsiveness” (Meso Scale Technologies, LLC., priority 2013, dated 2022).
Where two headings read alike, the source gives them in different places.

Experiments:
A498 xenograft = assay: Biomarker levels in A498 RCC xenograft tumor extracts (MSD multiplex immunoassay); type: in vivo, mice; conditions: A498 tumor extract, sunitinib (+), mean
Method: (§1) A panel of biomarkers was measured in Melanoma and RCC xenograft tissue extracts from mice, described in Table 4. Xenografts were generated using the listed melanoma and RCC cell lines, and tumors harvested and extracted following the indicated treatments. SKMEL5 cells were used with or without transfection to express constitutively active GSK3β. A375 cells were used with or without transfection to express GSK3β specific shRNA under a doxycycline-controlled promoter.
(§2) Multiplex immunoassay kits were used for detection of total and/or phosphorylated biomarkers (supplied by Meso Scale Discovery, a division of Meso Scale Diagnostics, LLC, Rockville, Md.). Levels of each biomarker were determined by calibration of the assays with were either purified calibrator proteins or using control cell lysates from appropriately treated cultured cell lines (e.g., cells subjected to conditions known to induce or reduce levels of a specific biomarker). Calibration curves were derived by testing serial dilutions of the calibrator lysates or purified proteins. Levels of biomarkers in test samples were back-calculated from the calibration curves and were expressed in terms of wt. (or arbitrary Units for phospho-protein markers) of protein per weight of tissue extract (for purified calibrators) or in terms of weight of crude control lysate protein per well (for lysate calibrators). Titrations of tumor extracts were carried out to determine the linearity of the assay response to sample dilution and to select the sample dilution that would be appropriate to use for each assay panel.
(§3) In general, the assay format was as follows, with minor alterations for specific assay panels as indicated in the assay protocols provided with each assay kit (supplied by Meso Scale Discovery, Rockville, Md.): (1) block MSD MULTI-SPOT® plate for 1 hour with appropriate MSD® blocking solution and wash; (2) add 25 μl assay diluent to each well, if specified; (3) add 25 μl calibrator, or sample (diluted as appropriate) to each well; (4) incubate with shaking for 1-3 hours (time as specified) and wash the well; (5) add 25 μl labeled detection antibody solution to each well; (6) incubate with shaking for 1-2 hours (time as specified) and wash the well; (7) add 150 μl MSD read buffer to each well; (8) read plate immediately on MSD SECTOR® Imager 6000 Reader (supplied by Meso Scale Discovery, Rockville, Md.).
(§4) Tumor tissue extracts were assayed at 5-10 μg/well total protein per well. Samples from each set were assayed on the same plate. […] The signals obtained are not normalized to any housekeeping tissue factor, which may serve to improve animal-to-animal reproducibility, but are normalized to total lysate protein.
(§5) Samples that were not treated with drug are designated as (−) and those treated with drug as (+).

786-0 xenograft = assay: Biomarker levels in 786-0 RCC xenograft tumor extracts (MSD multiplex immunoassay); type: in vivo, mice
Method: as §1, §2, §3, §4, §5

A375 xenograft = assay: Biomarker levels in A375 control melanoma xenograft tumor extracts (MSD multiplex immunoassay); type: in vivo, mice
Method: as §1, §2, §3, §4, §5

[1] = system: A375 (GSKshRNA) xenograft; assay: Biomarker levels in A375 GSK3β shRNA melanoma xenograft tumor extracts (MSD multiplex immunoassay); type: in vivo, mice
Method: as §1, §2, §3, §4, §5

[2] = system: A375 (GSKshRNA) xenograft + doxycycline; assay: Biomarker levels in A375 shRNA + Dox melanoma xenograft tumor extracts (MSD multiplex immunoassay); type: in vivo, mice; conditions: A375 shRNA + Dox tumor extract, sorafenib (+), mean
Method: as §1, §2, §3, §4, §5

SKMEL5 xenograft = assay: Biomarker levels in SKMEL5 wt melanoma xenograft tumor extracts (MSD multiplex immunoassay); type: in vivo, mice
Method: as §1, §2, §3, §4, §5

[3] = system: SKMEL5 (active GSK3beta) xenograft; assay: Biomarker levels in SKMEL5 GSK3β+ (active GSK3beta) melanoma xenograft tumor extracts (MSD multiplex immunoassay); type: in vivo, mice
Method: as §1, §2, §3, §4, §5

A375 cells = conditions: cited from earlier work
[4] = 786-0 tumor extract, sunitinib (+), mean
[5] = A375 control tumor extract, sorafenib (+), mean
[6] = wild type A375 tumors, sorafenib
[7] = A375 GSK3β shRNA tumor extract, sorafenib (+), mean
[8] = SKMEL5 wt tumor extract, sorafenib (+), mean
[9] = SKMEL5 GSK3β+ tumor extract, sorafenib (+), mean

Structure (SMILES): CCN(CC)CCNC(=O)c1c(C)[nH]c(/C=C2\C(=O)Nc3ccc(F)cc32)c1C [sunitinib]
- Akt (A498 xenograft): 6.3 pg/ug pr
- E-Cadherin (A498 xenograft): 0.0 pg/ug pr
- GSK3β (A498 xenograft): 24 pg/ug pr
- Rb (A498 xenograft): 0.00 pg/ug pr
- SRFP-1 (A498 xenograft): 0.15 pg/ug pr
- VEGF (A498 xenograft): 5.8 pg/ug pr
- Wnt3A (A498 xenograft): 8.8 pg/ug pr
- c-Met (A498 xenograft): 1.47 ng/ug pr
- dephospho β-catenin (A498 xenograft): 3.4 Units/ug pr
- phospho-GSK3β (A498 xenograft): 14.2 Units/ug pr
- phospho-Rb (A498 xenograft): 0.08 Units/ug pr
- phospho-cMet (A498 xenograft): 73.6 pg lys cal/ug pr
- phosphor-Akt (A498 xenograft): 59.1 Units/ug pr
- β-catenin (A498 xenograft): 34 pg/ug pr
- Akt (786-0 xenograft; [4]): 9.3 pg/ug pr
- E-Cadherin (786-0 xenograft; [4]): 0.1 pg/ug pr
- GSK3β (786-0 xenograft; [4]): 61 pg/ug pr
- Rb (786-0 xenograft; [4]): 6.48 pg/ug pr
- SRFP-1 (786-0 xenograft; [4]): 0.23 pg/ug pr
- VEGF (786-0 xenograft; [4]): 38.3 pg/ug pr
- Wnt3A (786-0 xenograft; [4]): 11.8 pg/ug pr
- c-Met (786-0 xenograft; [4]): 1.26 ng/ug pr
- dephospho β-catenin (786-0 xenograft; [4]): 23.3 Units/ug pr
- phospho-GSK3β (786-0 xenograft; [4]): 5.9 Units/ug pr
- phospho-Rb (786-0 xenograft; [4]): 0.14 Units/ug pr
- phospho-cMet (786-0 xenograft; [4]): 31.5 pg lys cal/ug pr
- phosphor-Akt (786-0 xenograft; [4]): 78.5 Units/ug pr
- β-catenin (786-0 xenograft; [4]): 82 pg/ug pr

Structure (SMILES): CNC(=O)c1cc(Oc2ccc(NC(=O)Nc3ccc(Cl)c(C(F)(F)F)c3)cc2)ccn1 [sorafenib]
- Akt (A375 xenograft; [5]): 5.3 pg/ug pr
- GSK3β (A375 xenograft; [5]): 84 pg/ug pr
- Rb (A375 xenograft; [5]): 3.45 pg/ug pr
- SRFP-1 (A375 xenograft; [5]): 1.30 pg/ug pr
- Wnt3A (A375 xenograft; [5]): 23.2 pg/ug pr
- c-Met (A375 xenograft; [5]): 0.23 ng/ug pr
- dephospho β-catenin (A375 xenograft; [5]): 7.3 Units/ug pr
- phospho-Rb (A375 xenograft; [5]): 0.21 Units/ug pr
- phospho-cMet (A375 xenograft; [5]): 3.6 pg lys cal/ug pr
- phosphor-Akt (A375 xenograft; [5]): 8.5 Units/ug pr
- β-catenin (A375 xenograft; [5]): 32 pg/ug pr
- change in total Rb levels with treatment (A375 xenograft; control A375, sorafenib, most samples at or below detection limits): increase in its levels
- change in phospho-GSK3β with treatment (A375 xenograft; [6]): no changes
- change in total GSK3β with treatment (A375 xenograft; [6]): no changes
- Akt [1, 7]: 2.2 pg/ug pr
- GSK3β [1, 7]: 50 pg/ug pr
- Rb [1, 7]: 0.96 pg/ug pr
- SRFP-1 [1, 7]: 0.35 pg/ug pr
- VEGF [1, 7]: 8.5 pg/ug pr
- Wnt3A [1, 7]: 12.0 pg/ug pr
- c-Met [1, 7]: 0.16 ng/ug pr
- dephospho β-catenin [1, 7]: 3.0 Units/ug pr
- phospho-GSK3β [1, 7]: 11.1 Units/ug pr
- phospho-Rb [1, 7]: 0.13 Units/ug pr
- phospho-cMet [1, 7]: 1.8 pg lys cal/ug pr
- phosphor-Akt [1, 7]: 5.9 Units/ug pr
- β-catenin [1, 7]: 16 pg/ug pr
- change in levels of active β-catenin with treatment ([1]; shRNA transfected A375 tumors, sorafenib): reduction in levels of active β-catenin
- Akt [2]: 1.6 pg/ug pr
- GSK3β [2]: 24 pg/ug pr
- Rb [2]: 0.27 pg/ug pr
- SRFP-1 [2]: 0.22 pg/ug pr
- VEGF [2]: 2.6 pg/ug pr
- c-Met [2]: 0.10 ng/ug pr
- dephospho β-catenin [2]: 2.9 Units/ug pr
- phospho-GSK3β [2]: 6.6 Units/ug pr
- phospho-Rb [2]: 0.10 Units/ug pr
- phospho-cMet [2]: 1.4 pg lys cal/ug pr
- phosphor-Akt [2]: 6.1 Units/ug pr
- β-catenin [2]: 21 pg/ug pr
- change in E-cadherin levels with treatment (SKMEL5 xenograft; SKMEL5 not transfected, sorafenib): no additional effect
- change in phospho-Akt levels with treatment (SKMEL5 xenograft; SKMEL5 tumors, sorafenib): unchanged phospho-Akt levels
- change in total Akt levels with treatment (SKMEL5 xenograft; SKMEL5 tumors, sorafenib): reduced levels of total Akt
- Akt (SKMEL5 xenograft; [8]): 22.3 pg/ug pr
- E-Cadherin (SKMEL5 xenograft; [8]): 10.9 pg/ug pr
- GSK3β (SKMEL5 xenograft; [8]): 162 pg/ug pr
- Rb (SKMEL5 xenograft; [8]): 0.23 pg/ug pr
- SRFP-1 (SKMEL5 xenograft; [8]): 0.08 pg/ug pr
- VEGF (SKMEL5 xenograft; [8]): 0.8 pg/ug pr
- Wnt3A (SKMEL5 xenograft; [8]): 6.2 pg/ug pr
- c-Met (SKMEL5 xenograft; [8]): 0.51 ng/ug pr
- dephospho β-catenin (SKMEL5 xenograft; [8]): 7.4 Units/ug pr
- phospho-GSK3β (SKMEL5 xenograft; [8]): 44.0 Units/ug pr
- phospho-Rb (SKMEL5 xenograft; [8]): 0.62 Units/ug pr
- phospho-cMet (SKMEL5 xenograft; [8]): 15.7 pg lys cal/ug pr
- β-catenin (SKMEL5 xenograft; [8]): 31 pg/ug pr
- change in active (dephospho) β-catenin with treatment (SKMEL5 xenograft; wt SKMEL5 tumors, sorafenib): decreased
- change in GSK3β phosphorylation with treatment (SKMEL5 xenograft; wt SKMEL5 tumors, sorafenib, total cellular protein): A reduction in GSK3β phosphorylation was not observed
- Akt [3, 9]: 32.4 pg/ug pr
- E-Cadherin [3, 9]: 0.0 pg/ug pr
- GSK3β [3, 9]: 88 pg/ug pr
- Rb [3, 9]: 0.63 pg/ug pr
- SRFP-1 [3, 9]: 0.22 pg/ug pr
- VEGF [3, 9]: 7.2 pg/ug pr
- c-Met [3, 9]: 0.59 ng/ug pr
- dephospho β-catenin [3, 9]: 12.6 Units/ug pr
- phospho-GSK3β [3, 9]: 7.9 Units/ug pr
- phospho-Rb [3, 9]: 0.53 Units/ug pr
- phospho-cMet [3, 9]: 7.2 pg lys cal/ug pr
- phosphor-Akt [3, 9]: 14.3 Units/ug pr
- β-catenin [3, 9]: 39 pg/ug pr
- change in E-cadherin levels with treatment ([3]; SKMEL5 transfected (active GSK3β), sorafenib): no additional effect
- change in VEGF levels with treatment (786-0 xenograft; 786-0, treated vs untreated): increased levels of VEGF
- sorafenib-induced apoptosis (A375 cells; A375 cells, down-modulation of GSK3β with shRNA): increase sorafenib-induced apoptosis
- sorafenib-induced apoptosis (A375 cells; wild type A375 cells, endogenous active GSK3β): resistance to sorafenib-induced apoptosis
